Where a name gives a salt, the structure may show the parent alone. Read-outs that look alike come from different tables or passages of the source.
Target: T1, IRAK4 (Homo sapiens, UniProt Q9NWZ3)
T1 sequence (Q9NWZ3 1-460): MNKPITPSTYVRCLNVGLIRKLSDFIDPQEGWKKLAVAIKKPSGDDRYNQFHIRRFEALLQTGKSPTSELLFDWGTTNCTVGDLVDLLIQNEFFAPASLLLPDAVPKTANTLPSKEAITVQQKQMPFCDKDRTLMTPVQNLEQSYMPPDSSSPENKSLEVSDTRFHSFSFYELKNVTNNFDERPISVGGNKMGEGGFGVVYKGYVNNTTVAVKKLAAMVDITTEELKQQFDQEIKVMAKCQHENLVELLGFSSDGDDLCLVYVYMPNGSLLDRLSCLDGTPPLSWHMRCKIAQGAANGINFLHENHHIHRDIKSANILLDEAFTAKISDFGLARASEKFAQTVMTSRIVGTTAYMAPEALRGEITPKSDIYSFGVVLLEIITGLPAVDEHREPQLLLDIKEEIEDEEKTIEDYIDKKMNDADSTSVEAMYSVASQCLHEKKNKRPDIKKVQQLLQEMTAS
Assay: Degradation of IRAK4 in THP1 cells, Western blot
Format: cell-based
Set-up: Degradation of IRAK4 in THP1 by compound; host or cells: THP-1
Protocol: After 24 hours of incubation, the cells were collected into 1.5 mL centrifuge tubes and centrifuged at 1,000 rpm for 5 minutes. […] The supernatants were collected, and the IRAK4 protein levels were respectively detected by Western blot (WB). The total protein concentration in the cell lysate supernatant was determined using a BCA protein quantification kit (NCM). Based on the total protein concentration detected by BCA, the samples were adjusted to 2 μg/μL using cell lysis buffer and 5×SDS-PAGE protein loading buffer (Beyotime), heated at 95°C for 5 minutes in a metal bath, and then placed on ice for an ice bath for 5 minutes before being used as the loading samples for Western blot analysis. Protein electrophoresis was performed using a 10% SDS-PAGE gel with a loading volume of 20 μL (total protein 40 μg) and Tris-SDS electrophoresis at a constant voltage of 80 V. After electrophoresis, the proteins on the gel were transferred to a 0.2 μm PVDF membrane (Immobilon) using a semi-dry transfer method at 0.5 A and 20 V for 60 minutes. After transfer, the membrane was placed in 5% skimmed milk and incubated at rt for 2 hours. After blocking, the PVDF membrane was incubated with primary antibody against IRAK4 (Abcam) at 4°C overnight. […] The color development and protein band imaging were performed using a chemiluminescence imaging system ([…] Technology Co., Ltd.). The protein bands were analyzed for grayscale values using Image J analysis software. The corrected grayscale values for each sample were calculated and then compared with those of the control group treated with DMSO alone to calculate the degradation rate.

[1] = THP-1 cells, 24 hours of incubation, IRAK4 protein by Western blot, read-out: DC50
[2] = maximum degradation rate, THP-1 cells, 24 hours of incubation, read-out: Dmax

Row | SMILES | DC50 [1] [µM] | Dmax [2] [%] | DC50 [µM] | Dmax (THP-1) [%] | Dmax (maximum degradation rate, THP-1 cells, 24 hours of incubation)
1 | Cn1c(-c2ccc(N3CCC(CCN4CCN(c5ccc(-n6cc(NC(=O)c7cccc(C(F)(F)F)n7)c(C(N)=O)n6)cc5)CC4)C3)cc2)nn(C2CCC(=O)NC2=O)c1=O (stereo not drawn) [Compound A185] | < 0.1 | 40 to 60 | – | – | –
2 | Cn1c(=O)n(C2CCC(=O)NC2=O)c2cccc(N3CCC(CN4CCN(c5ccc(-n6cc(NC(=O)c7cccc(C(F)(F)F)n7)c(C(N)=O)n6)cc5)CC4)C(F)(F)C3)c21 (stereo not drawn) [Compound A298, N-(3-Carbamoyl-1-(4-(4-((1-(1-(2,6-dioxopiperidin-3-yl)-3-methyl-2-oxo-2,3-dihydro-1H-benzo[d]imidazol-4-yl)-3,3-difluoropiperidin-4-yl)methyl)piperazin-1-yl)phenyl)-1H-pyrazol-4-yl)-6-(trifluoromethyl)picolinamide] | < 0.1 | > 60 | – | – | –
3 | Cn1c(=O)n(C2CCC(=O)NC2=O)c2ccc(N3CCC(CN4CCN(c5ccc(-n6cc(NC(=O)c7cccc(C(F)(F)F)n7)c(C(N)=O)n6)cc5)CC4)C(F)(F)C3)cc21 (stereo not drawn) [Compound A299, N-(3-Carbamoyl-1-(4-(4-((1-(1-(2,6-dioxopiperidin-3-yl)-3-methyl-2-oxo-2,3-dihydro-1H-benzo[d]imidazol-5-yl)-3,3-difluoropiperidin-4-yl)methyl)piperazin-1-yl)phenyl)-1H-pyrazol-4-yl)-6-(trifluoromethyl)picolinamide] | < 0.1 | > 60 | – | – | –
4 | Cn1c(=O)n(C2CCC(=O)NC2=O)c2cccc(N3CCC(CCN4CCN(c5ccc(-n6cc(NC(=O)c7cccc(C(F)(F)F)n7)c(C(N)=O)n6)cc5)CC4)C(F)(F)C3)c21 (stereo not drawn) [Compound A300] | – | – | < 0.1 | > 60 | –
5 | Cn1c(=O)n(C2CCC(=O)NC2=O)c2ccc(N3CCC(CN4CCN(c5ccc(-n6cc(NC(=O)c7cccc(C(F)(F)F)n7)c(C(N)=O)n6)cc5)CC4)C3)cc21 (stereo not drawn) [Compound A304, N-(3-carbamoyl-1-(4-(4-((1-(1-(2,6-dioxopiperidin-3-yl)-3-methyl-2-oxo-2,3-dihydro-1H-benzo[d]imidazol-5-yl)pyrrolidin-3-yl)methyl)piperazin-1-yl)phenyl)-1H-pyrazol-4-yl)-6-(trifluoromethyl)picolinamide] | < 0.1 | 40 to 60 | – | – | –
6 | Cn1c(=O)n(C2CCC(=O)NC2=O)c2cccc(N3CCC(CN4CCN(c5ccc(-n6cc(NC(=O)c7cccc(C(F)(F)F)n7)c(C(N)=O)n6)cc5)CC4)C3)c21 (stereo not drawn) [Compound A305, N-(3-carbamoyl-1-(4-(4-((1-(1-(2,6-dioxopiperidin-3-yl)-3-methyl-2-oxo-2,3-dihydro-1H-benzo[d]imidazol-4-yl)pyrrolidin-3-yl)methyl)piperazin-1-yl)phenyl)-1H-pyrazol-4-yl)-6-(trifluoromethyl)picolinamide] | 0.1 to 1 | 40 to 60 | – | – | –
7 | COc1ccc(C(=O)N2CCC(CN3CCN(C(=O)c4ccc(-n5cc(NC(=O)c6cccc(C(F)(F)F)n6)c(C(N)=O)n5)cc4)CC3)C2)cc1N1CCC(=O)NC1=O (stereo not drawn) [Compound A313, N-(3-carbamoyl-1-(4-((1-(3-(2,4-dioxotetrahydropyrimidin-1(2H)yl)-4-methoxybenzoyl)pyrrolidin-3-yl)methyl)piperazine-1-carbonyl)phenyl)-1H-pyrazol-4-yl)-6-(trifluoromethyl)picolinamide trifluoroacetate] | 0.1 to 1 | > 60 | – | – | –
8 | CN(Cc1ccc(-n2cc(NC(=O)c3cccc(C(F)(F)F)n3)c(C(N)=O)n2)cc1)C1CC2(CCN(c3cccc4c3n(C)c(=O)n4C3CCC(=O)NC3)CC2)C1 (stereo not drawn) [Compound A315] | 0.1 to 1 | – | – | – | A (A represents Dmax > 60%)
9 | Cn1c(=O)n(C2CCC(=O)NC2=O)c2cccc(N3CCC4(CC3)CN(CCc3ccc(-n5cc(NC(=O)c6cccc(C(F)(F)F)n6)c(C(N)=O)n5)cc3)C4)c21 (stereo not drawn) [Compound A316, N-(3-carbamoyl-1-(4-(2-(7-(1-(2,6-dioxopiperidin-3-yl)-3-methyl-2-oxo-2,3-dihydro-1H-benzo[d]imidazol-4-yl)-2,7-diazaspiro[3.5]nonan-2-yl)ethyl)phenyl)-1H-pyrazol-4-yl)-6-(trifluoromethyl)picolinamide] | < 0.1 | > 60 | – | – | –

— patent EP4763839A1 (Pamplona Therapeutics (Shenzhen) Co., Ltd., priority 2023, dated 2025)
